For data set [1] the following is noted: 101.33 kPa, Liquid, Vibrating tube method.
Data set [2] in a line: molar heat capacity at constant pressure. Particulars: 101.33 kPa, Liquid, Small sample (50 mg) DSC.
Data set [3] in a line: excess molar enthalpy (molar enthalpy of mixing); xn = mol fraction of the nth substance listed. As to conditions: 303.15 K, 101.3 kPa, Liquid.

± gives the expanded uncertainty stated by the source.

Consider six compounds from the NIST ThermoML archive (doi:10.1016/j.jct.2008.10.002).

The mass density is the mass of a sample divided by its volume. Regarding `O` [water], the mass density in data set [1] (308.15 K) was found to be 994.1 ± 0.3 kg/m3. Besides, the “molar heat capacity at constant pressure” value in data set [2] (293.15 K) is listed as 75.4 ± 1.2 J/K/mol; in data set [2] (298.15 K), 75.3 ± 1.2 J/K/mol; in data set [2] (303.15 K), 75.3 ± 1.2 J/K/mol; in data set [2] (308.15 K), 75.2 ± 1.2 J/K/mol; in data set [2] (313.15 K), 75.2 ± 1.2 J/K/mol; in data set [2] (318.15 K) it was 75.3 ± 1.2 J/K/mol.

On to `CCCC[n+]1cccc(C)c1.F[B-](F)(F)F` [1-butyl-3-methylpyridinium tetrafluoroborate] + O, for which the excess molar enthalpy in data set [3] (x1 = 0.1023) worked out at 0.261 ± 0.00574 kcal/mol; in data set [3] (x1 = 0.2013) it was 0.421 ± 0.00884 kcal/mol; in data set [3] (x1 = 0.3036), 0.514 ± 0.0108 kcal/mol; in data set [3] (x1 = 0.4004), 0.554 ± 0.0115 kcal/mol; in data set [3] (x1 = 0.4891) it was 0.543 ± 0.0112 kcal/mol; in data set [3] (x1 = 0.5761), 0.497 ± 0.0105 kcal/mol. In addition, the excess molar enthalpy was found to be 0.428 ± 0.00908 kcal/mol in data set [3] (x1 = 0.6659) and 0.256 ± 0.0055 kcal/mol in data set [3] (x1 = 0.8154).

As for `CCOS(=O)(=O)[O-].CCn1cc[n+](C)c1` [1-ethyl-3-methylimidazolium ethyl sulfate], the mass density is listed as 1240.6 ± 0.4 kg/m3 in data set [1] (293.15 K); 1237.2 ± 0.4 kg/m3 in data set [1] (298.15 K); 1233.8 ± 0.4 kg/m3 in data set [1] (303.15 K); 1230.4 ± 0.4 kg/m3 in data set [1] (308.15 K); 1227 ± 0.4 kg/m3 in data set [1] (313.15 K); 1223.7 ± 0.4 kg/m3 in data set [1] (318.15 K). Moreover, the “molar heat capacity at constant pressure” value is recorded as 392.2 ± 6.1 J/K/mol in data set [2] (293.15 K); 394.4 ± 6.1 J/K/mol in data set [2] (298.15 K); 396.8 ± 6.1 J/K/mol in data set [2] (303.15 K); 399.3 ± 6.2 J/K/mol in data set [2] (308.15 K); 402 ± 6.2 J/K/mol in data set [2] (313.15 K); 404.9 ± 6.3 J/K/mol in data set [2] (318.15 K).

`CCCCn1cc[n+](C)c1.COS(=O)(=O)[O-]` [1-butyl-3-methylimidazolium methyl sulfate]: the mass density in data set [1] (293.15 K) worked out at 1210.7 ± 0.4 kg/m3; in data set [1] (298.15 K), 1207.4 ± 0.4 kg/m3; in data set [1] (303.15 K), 1204.1 ± 0.4 kg/m3; in data set [1] (308.15 K), 1200.8 ± 0.4 kg/m3; in data set [1] (313.15 K), 1197.5 ± 0.4 kg/m3; in data set [1] (318.15 K), 1194.2 ± 0.4 kg/m3. The “molar heat capacity at constant pressure” value in data set [2] (293.15 K) came to 413.7 ± 6.4 J/K/mol; in data set [2] (298.15 K), 416.2 ± 6.4 J/K/mol; in data set [2] (303.15 K) it was 418.5 ± 6.5 J/K/mol; in data set [2] (308.15 K) it was 420.9 ± 6.5 J/K/mol; in data set [2] (313.15 K), 423.3 ± 6.6 J/K/mol; in data set [2] (318.15 K), 425.6 ± 6.6 J/K/mol.

Consider `CCn1cc[n+](C)c1.O=S(=O)([O-])C(F)(F)F` [1-ethyl-3-methylimidazolium trifluoromethanesulfonate], for which the mass density is 1389.5 ± 0.6 kg/m3 in data set [1] (293.15 K); 1385.3 ± 0.6 kg/m3 in data set [1] (298.15 K); 1381.1 ± 0.6 kg/m3 in data set [1] (303.15 K); 1376.9 ± 0.6 kg/m3 in data set [1] (308.15 K); 1372.7 ± 0.6 kg/m3 in data set [1] (313.15 K); 1368.6 ± 0.6 kg/m3 in data set [1] (318.15 K). Besides, the “molar heat capacity at constant pressure” value in data set [2] (293.15 K) is 361.1 ± 5.6 J/K/mol; in data set [2] (298.15 K) it was 363.2 ± 5.6 J/K/mol; in data set [2] (303.15 K), 365.3 ± 5.7 J/K/mol; in data set [2] (308.15 K), 367.4 ± 5.7 J/K/mol; in data set [2] (313.15 K), 369.6 ± 5.7 J/K/mol; in data set [2] (318.15 K) it was 371.8 ± 5.8 J/K/mol.

For the compound `CCCCn1cc[n+](C)c1.O=S(=O)([O-])C(F)(F)F` [1-butyl-3-methylimidazolium trifluoromethanesulfonate], the mass density in data set [1] (293.15 K) came to 1301.6 ± 0.5 kg/m3; in data set [1] (298.15 K), 1297.6 ± 0.5 kg/m3; in data set [1] (303.15 K) it was 1293.7 ± 0.5 kg/m3; in data set [1] (308.15 K), 1289.7 ± 0.5 kg/m3; in data set [1] (313.15 K), 1285.8 ± 0.5 kg/m3; in data set [1] (318.15 K), 1281.9 ± 0.5 kg/m3. Further, the “molar heat capacity at constant pressure” value in data set [2] (293.15 K) was determined as 421.6 ± 6.5 J/K/mol; in data set [2] (298.15 K), 424.1 ± 6.6 J/K/mol; in data set [2] (303.15 K), 426.7 ± 6.6 J/K/mol; in data set [2] (308.15 K) it was 429.5 ± 6.7 J/K/mol; in data set [2] (313.15 K), 432.4 ± 6.7 J/K/mol; in data set [2] (318.15 K) it was 435.5 ± 6.7 J/K/mol.
